Laboratory results published in patent US9428477B2, “Trans-2-decenoic acid derivative and drug containing same” (NIPPON ZOKI PHARMACEUTICAL CO., LTD., priority 2012, dated 2016).

Assays:
[1] = tested on: rats with paclitaxel-induced peripheral nerve disorder; test: Rat peripheral nerve disorder induced by paclitaxel, von Frey test; type: in vivo; conditions: ip, test drug intraperitoneally, single dose, higher of values 1 and 5 hours after administration, mechanical stimulus of right hind limb, normal threshold 15, read-out: Recovery Rate of 50% Reaction Threshold Value
Protocol: The effects of the compounds of the present invention were evaluated for a peripheral nerve disorder which is a side effect induced by the administration of an anti-cancer agent paclitaxel, such as hyperesthesia including allodynia induced by mechanical stimuli, which is a severe pain induced by such tactile stimuli which usually cause no pains. The compound of the present invention was intraperitoneally administered to rats as a test drug to conduct a von Frey test.
Male SD rats of six weeks age (six rats per group) were used as experimental animals, and paclitaxel (2 mg/kg) was intraperitoneally administered every other day for four times in total to prepare rats with paclitaxel-induced peripheral nerve disorder. During the period of 18 to 25 days or during the period of 20 to 27 days after the initiation of paclitaxel administration, the test drug was intraperitoneally administered in a single dose of […], and the following von Frey test was conducted.
(§1) The rats of the above (1) were placed in a transparent acrylic cage with a wire-meshed floor and habituated for about three minutes, and the 50% reaction threshold values to the mechanical stimulus of right hind limb were measured before administration of the test drug and after 1 and 5 hours from the initiation of the administration.
(§2) The measurement was conducted using von Frey filaments (manufactured by North Coast Medical Inc.) in accordance with the methods of Chaplan, et al. (Journal of Neuroscience Methods, 53(1), 55-63, 1994) and Dixon, et al. (Annual Review of Pharmacology and Toxicology, 20, 441-462, 1980). […] The case where the rat escaped at the instance of removing the filament was also called positive. When the positive reaction was found, stimulus was applied similarly with a filament of one rank weaker, and in the absence of the reaction, stimulus was similarly applied with a filament of one rank stronger, and a point where the reaction changed from negative to positive or from positive to negative was called the first two reactions. Subsequently, stimuli were applied for continuously four times by the same up-down method. A 50% reaction threshold value to the mechanical stimulus was measured using the reaction to the six stimuli in total and then (mean value)±(standard error) for each group was calculated. Incidentally, when stimulus reached to a load of 15.0 g without positive reaction, or when positive reaction continued to a load of 0.4 g, 15.0 g or 0.25 g was adopted as each of 50% reaction threshold values. With regard to the higher 50% reaction threshold value between the 50% threshold values after 1 hour and 5 hours from administration of a test drug, a recovery rate (%) of the 50% reaction threshold value was calculated by the following expression in which 15 was taken as a normal threshold value.
Recovery rate (%) of 50% reaction threshold value=[(50% reaction threshold value after 1 hour or 5 hours from administration of test drug)−(50% reaction threshold value before administration of test drug)]/[(Normal threshold value)−(50% reaction threshold value before administration of test drug)]×100

MIA-induced OA rats = test: Analgesic action against osteoarthritis model rats (MIA-induced OA), von Frey test; type: in vivo, rat; conditions: intraperitoneally, single dose of 500 μg/kg, hyperalgesia of OA induced by MIA
Protocol: as §1
as §2, with “value. […]” for “value.”
A 50% reaction threshold value to the mechanical stimulus of male Wistar rats of six weeks age was measured (the measurement method will be mentioned later), and a normal control group was selected. […]
With regard to the male Wistar rats of six weeks age used as experimental animals except the normal control group, their 50% reaction threshold values to the mechanical stimulus (the measuring method will be mentioned later) and body weights were measured after 24 days from the administration of MIA mentioned in (1) and then 3 groups, i.e. a normal control group, an onset control group, and a test drug-administered group, six rats per group, were organized. […]

MAP kinase (ERK 1/2) = test: Activation (phosphorylation) of MAP kinase in cultured cerebral cortex nerve cells, Western immunoblotting; type: cell-based; conditions: 0.5 h; fetal rat cerebral cortex nerve cells; compound 250 μg/ml in 0.1% DMSO; 30 minutes; relative to control = 1.00; read-out: Ratio of pMAPK to MAPK
Protocol: With regard to the compounds of the present invention, the activation of MAP kinase (ERK 1/2) was measured in accordance with a Western immunoblotting in the following manner.
Nerve cells were dispersed from cerebral cortex of a fetal rat of 17 days age, and the nerve cells were cultured for one day in a Dulbecco's modified Eagle's medium (DMEM) containing 5% fetal bovine serum. The culture medium was exchanged with a serum-free medium (B27 supplemented Neurobasal; Invitrogen), and the nerve cells were cultured at the density of 20,000 to 40,000 cells/cm^2 in a polyornithine-coated culture dish.
After three days, the compound of the present invention was added, and the culture was continued for 30 minutes. Thereafter, the cells were recovered on ice using a solution containing a phosphatase inhibitor where Tris-HCl buffer was used as a base. The protein concentration of the resulting cell extract was quantified with a BCA Protein Assay Kit (Takara Bio Co., Ltd.), and a certain amount of the protein (3 μg for the measurement of MAP kinase and 5 μg for the measurement of phosphorylated MAP kinase) was subjected to polyacrylamide gel electrophoresis. The protein was transferred from the electrophoresed gel to a PVDF membrane, and Western immunoblotting was carried out using each of an anti-MAP kinase antibody (Cell Signaling Technology) and an anti-phosphorylated MAP kinase antibody (Cell Signaling Technology) of the primary antibody.
Subsequently, the reaction with an alkaline phosphatase-labeled anti-rabbit IgG antibody (Promega) of the secondary antibody was carried out, and the enzymatic activity was allowed to develop color, to measure MAP kinase (MAPK) and the phosphorylated MAP kinase (pMAPK).
Incidentally, each of the compounds of the present invention was dissolved in 0.1% DMSO to adjust its concentration to 250 μg/ml. As to the control, 0.1% DMSO was added.
The intensity of the concentration of the bands of eletrophoresed the gel was calculated and quantified using Image J (K. K. Bioarts). The numerical values for the MAPK when using the compounds of the present invention were each divided by the numerical value for the MAPK of the control, and the numerical values for the pMAPK when using the compounds of the present invention were divided by the numerical value for the pMAPK of the control, whereby a ratio of the MAPK when using each of the compounds of the present invention to the control, and a ratio of the pMAPK when using each of the compounds of the present invention to the control were obtained. Subsequently, the ratio of the pMAPK to the control obtained was divided by the ratio of the MAPK to the control to obtain a ratio of the pMAPK to the MAPK.

CCCCCCC/C=C/C(=O)N1CCN(c2ccccc2)CC1 [Compound 25, 1-((E)-2-Decenoyl)-4-phenylpiperazine]
change in vivo at 0.3 mg/kg [1]: 55.3%
Recovery Rate of 50% Reaction Threshold (MIA-induced OA rats): 18.9%

CCCCCCC/C=C/C(=O)N1CCN(CCC(=O)O)CC1 [Compound 21, 3-[4-((E)-2-decenoyl)piperazin-1-yl]propionic acid]
change in vivo at 0.3 mg/kg [1]: 34.8%
fold induction at 250 µg/mL (MAP kinase (ERK 1/2)): 1.54
melting point: 53 to 55 °C

CCCCCCC/C=C/C(=O)N1CCN(CCc2ccccc2)CC1 [Compound 27, 1-((E)-2-Decenoyl)-4-(2-phenylethyl)piperazine]
change in vivo at 0.3 mg/kg [1]: 69.1%
fold induction at 250 µg/mL (MAP kinase (ERK 1/2)): 1.44
melting point: 33 to 34 °C

CCCCCCC/C=C/C(=O)N1CCCCC1 [Compound 5, 1-((E)-2-Decenoyl)piperidine]
change in vivo at 0.3 mg/kg [1]: 41.6%
Recovery Rate of 50% Reaction Threshold (MIA-induced OA rats): 35.8%

CCCCCCC/C=C/C(=O)N1CCN(C2CCCCC2)CC1 [Compound 23, 4-Cyclohexyl-1-((E)-2-decenoyl)piperazine]
change in vivo at 0.3 mg/kg [1]: 33%
fold induction at 250 µg/mL (MAP kinase (ERK 1/2)): 1.3
melting point: 33 to 34 °C

CCCCCCC/C=C/C(=O)N1CCN(C(C)C)CC1 [Compound 20, 1-((E)-2-Decenoyl)-4-isopropylpiperazine]
change in vivo at 0.3 mg/kg [1]: 26.9%
fold induction at 250 µg/mL (MAP kinase (ERK 1/2)): 1.27

CCCCCCC/C=C/C(=O)N1CCN(CCN(C)C)CC1 [Compound 22, 1-((E)-2-Decenoyl)-4-[2-(dimethylamino)ethyl]piperazine]
change in vivo at 0.3 mg/kg [1]: 29.7%
Recovery Rate of 50% Reaction Threshold (MIA-induced OA rats): 13.2%

CCCCCCC/C=C/C(=O)N1CCC(=O)CC1 [Compound 7, 1-((E)-2-decenoyl)piperidin-4-one]
change in vivo at 0.3 mg/kg [1]: 45.2%
fold induction at 250 µg/mL (MAP kinase (ERK 1/2)): 1.62

CCCCCCC/C=C/C(=O)N1CCN(Cc2ccccc2)CC1 [Compound 26, 4-Benzyl-1-((E)-2-decenoyl)piperazine]
change in vivo at 0.3 mg/kg [1]: 24.1%
fold induction at 250 µg/mL (MAP kinase (ERK 1/2)): 1.48
melting point: 62 to 63 °C

CCCCCCC/C=C/C(=O)N1CCCC1 [Compound 1, 1-((E)-2-Decenoyl)pyrrolidine]
change in vivo at 0.3 mg/kg [1]: 58.2%
Recovery Rate of 50% Reaction Threshold (MIA-induced OA rats): 24.2%

CCCCCCC/C=C/C(=O)N1CCC(CN(CC)CC)CC1 [Compound 14, 1-((E)-2-Decenoyl)-4-diethylaminomethylpiperidine]
change in vivo at 0.3 mg/kg [1]: 26%
fold induction at 250 µg/mL (MAP kinase (ERK 1/2)): 2.08
